# Results as given in PubChem BioAssay AID1963451 (Molecular Pharmacology Branch, DTP, NCI, 2024).
# System: 521955-158-R6-J3-PDC complex spheroid growth, % test/control
# Assay: Anticancer human tumor 521955-158-R6-J3-PDC patient-derived pancreatic carcinoma cell line growth inhibition [Asc]
# Conditions: for IC50: curve of first compound; for viability, T/C: stronger effect = lower value
# Procedure: Multicellular complex tumor spheroid response to apoptosis pathway targeting inhibitors Alrizomadlin, Pelcitoclax, and Dasminapant in combination with a variety of drugs and investigational agents in selected tumor cell lines
# The MDM2 inhibitor alrizomadlin, the Bcl-2/Bcl-xL inhibitor pelcitoclax, and the IAPs inhibitor dasminapant were evaluated both individually and in combination with standard of care and investigational anticancer small molecules within a complex spheroid model of solid tumors. . Complex spheroids include a stromal component modeled by human endothelial cells (HUVEC) and fibroblasts modeled by human mesenchymal stem cells (MSCs). The concentration ranges selected for each drug and investigational agent were based upon clinically achievable concentrations if the clinical Cmax of the agent was known.
# Compounds. The drugs and investigational agents: alrizomadlin (APG-115; NSC831270), pelcitoclax (APG-1252; NSC835773), dasminapant (APG-1387;NSC834197), TAK-243 (NSC785004), copanlisib (NSC809693), olaparib (NSC753686), talazoparib (NSC767125), cobimetinib (NSC 768068), eltanexor (KPT-8602, NSC 794443), abemaciclib (NSC 768073), sotorasib (NSC818433), adagrasib (NSC 831453), MRTX-1133 (NSC 836407), Iadademestat (ORY1001, NSC 806812), and RMC-4630 (NSC839698), were obtained from the NCI Developmental Therapeutics Program Chemical Repository. The FDA-approved anticancer drug set is available from the Developmental Therapeutics Program at https://dtp.cancer.gov/organization/dscb/obtaining/available plates.htm. […] The stock solutions were prepared in dimethyl sulfoxide (DMSO, Sigma-Aldrich, St. Louis, MO, cat. D2650) at 800-fold the tested concentration and stored at -70 degrees C prior to their use. All drugs and investigational agents were tested over a range starting from a high concentration at or near the clinical Cmax and decreasing in half-log increments. If the clinical Cmax for an agent had not been determined, the highest concentration tested was 10 microM.
# The patient-derived cancer (PDC) cell lines include five colon adenocarcinomas: 186277-243-T-J2-PDC, 616215-338-R-J1-PDC, 439559-082-T-J2-PDC, 463943-066-T-J2-PDC, and 519858-162-T-J1-PDC; three pancreatic carcinomas: 323965-272-R-J2-PDC, 521955-158-R6-J3-PDC, and 521955-158-R2-J5-PDC; two uterine sarcomas: 327498-152-R-J2-PDC and 993429-296-R-J1-PDC; two rhabdomyosarcomas: 755483-174-R-J1-PDC and 772245-204-R-J1-PDC; two soft tissue sarcomas: 126254-015-R-J1-PDC and 494315-158-R-J1-PDC; two malignant fibrous histiocytomas: 317291-083-R-J1-PDC and 596521-263-R-J1-PDC; two breast carcinomas: 171881-019-R-J1-PDC and 885512-296-R-J2-PDC; and one ovarian carcinoma: 6556581-035-R-J-PDC were obtained from the NCI PDMR, (https://pdmr.cancer.gov). The established cell lines HSSY-2 synovial sarcoma (RRID:CVCL 8719), SYO-1 synovial sarcoma (RRID:CVCL_7146), MPNST malignant peripheral neural sheath tumor were obtained from the Sloan Kettering Institute. The following established cell lines were purchased from the American Type Culture Collection (ATCC, Manassas, VA), Sor the received from the NCI repository:, PANC-1 pancreatic carcinoma (CRL-1469, RRID:CVCL_0480), OVCAR-5 ovarian carcinoma (RRID:CVCL_1628), OVCAR-8 ovarian carcinoma (RRID:CVCL_1629), , MCF-7 breast carcinoma (CRL-12584, RRID:CVCL_0031), MDA-MB-231 breast carcinoma (CRL-12532, RRID:CVCL_0062), NCI-H1876 small cell lung carcinoma (CRL-5902, RRID:CVCL_1503), NCI-H510A small cell lung carcinoma (HTB-184, RRID:CVCL_1565), NCI-H1417 (CRL-5869, RRID:CVCL_1469), and NCI-H196 small cell lung carcinoma (CRL-5823, RRID:CVCL_1509). Dr. Peter Houghton (Greehey Children's Cancer Research Institute, University of Texas Health Science Center, San Antonio, TX) provided Rh-18 rhabdomyosarcoma (RRID:CVCL_1659). Pooled donor human umbilical vein endothelial cells (HUVEC, Lonza, cat. CC-2519) and human mesenchymal stem cells (hMSC, Lonza, cat. PT-2501) were purchased from Lonza (Walkersville, MD).
# Cell Culture. […]
# 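Further: spheroids exposed to compounds for 7 days.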
# 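Wherever viability, T/C is given: 100% = DMSO vehicle control wells.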
structure (smiles),measurement,setting,value
C=C(F)C(=O)N1CCN(c2nc(OCC3CCCN3C)nc3c2CCN(c2cccc4cccc(Cl)c24)C3)CC1CC#N (configuration not stated) + Cc1c(S(C)(=O)=O)c(-c2cc(F)cc(N3CCN(c4ccc(NS(=O)(=O)c5ccc(NC(CCN6CCC(C(=O)OCCCP(=O)(O)O)CC6)CSc6ccccc6)c(S(=O)(=O)C(F)(F)F)c5)cc4)CC3)c2)c(-c2ccc(Cl)cc2)n1C(C)C,IC50,second compound 0.0316 µM,3740 nM
same,IC50,second compound 0.1 µM,1000 nM
same,IC50,second compound 0.316 µM,111 nM
same,IC50,second compound 1 µM,< 31.6 nM
same,IC50,second compound 3.16 µM,< 31.6 nM
same,IC50,second compound 10 µM,< 31.6 nM
same,"viability, T/C","second compound 0.0316 µM, first compound 0.0316 µM",79.3%
same,"viability, T/C","second compound 0.0316 µM, first compound 0.1 µM",79.6%
same,"viability, T/C","second compound 0.0316 µM, first compound 0.316 µM",73.5%
same,"viability, T/C","second compound 0.0316 µM, first compound 1 µM",73.3%
same,"viability, T/C","second compound 0.0316 µM, first compound 3.16 µM",59.1%
same,"viability, T/C","second compound 0.0316 µM, first compound 10 µM",0.31%
same,"viability, T/C","second compound 0.1 µM, first compound 0.0316 µM",80.3%
same,"viability, T/C","second compound 0.1 µM, first compound 0.1 µM",65.3%
same,"viability, T/C","second compound 0.1 µM, first compound 0.316 µM",58.5%
same,"viability, T/C","second compound 0.1 µM, first compound 1 µM",47.1%
same,"viability, T/C","second compound 0.1 µM, first compound 3.16 µM",39.6%
same,"viability, T/C","second compound 0.1 µM, first compound 10 µM",0.27%
same,"viability, T/C","second compound 0.316 µM, first compound 0.0316 µM",57.9%
same,"viability, T/C","second compound 0.316 µM, first compound 0.1 µM",49.6%
same,"viability, T/C","second compound 0.316 µM, first compound 0.316 µM",37.9%
same,"viability, T/C","second compound 0.316 µM, first compound 1 µM",36.9%
same,"viability, T/C","second compound 0.316 µM, first compound 3.16 µM",23.3%
same,"viability, T/C","second compound 0.316 µM, first compound 10 µM",0.26%
same,"viability, T/C","second compound 1 µM, first compound 0.0316 µM",40.1%
same,"viability, T/C","second compound 1 µM, first compound 0.1 µM",34.3%
same,"viability, T/C","second compound 1 µM, first compound 0.316 µM",28.4%
same,"viability, T/C","second compound 1 µM, first compound 1 µM",17.8%
same,"viability, T/C","second compound 1 µM, first compound 3.16 µM",8.04%
same,"viability, T/C","second compound 1 µM, first compound 10 µM",0.21%
same,"viability, T/C","second compound 3.16 µM, first compound 0.0316 µM",18.4%
same,"viability, T/C","second compound 3.16 µM, first compound 0.1 µM",16.9%
same,"viability, T/C","second compound 3.16 µM, first compound 0.316 µM",15.8%
same,"viability, T/C","second compound 3.16 µM, first compound 1 µM",10%
same,"viability, T/C","second compound 3.16 µM, first compound 3.16 µM",0.82%
same,"viability, T/C","second compound 3.16 µM, first compound 10 µM",0.2%
same,"viability, T/C","second compound 10 µM, first compound 0.0316 µM",13.4%
same,"viability, T/C","second compound 10 µM, first compound 0.1 µM",18.4%
same,"viability, T/C","second compound 10 µM, first compound 0.316 µM",21.8%
same,"viability, T/C","second compound 10 µM, first compound 1 µM",9.59%
same,"viability, T/C","second compound 10 µM, first compound 3.16 µM",0.77%
same,"viability, T/C","second compound 10 µM, first compound 10 µM",0.15%
